Reference: patent US20090028834A1 (priority 2007, published 2009)

Columns and labels:
Assay type in all cases: cell-based
[1] = system: Colony Forming Unit—Megakaryocyte (CFU-Mk); assay: Colony forming unit (CFU) assay, human bone marrow cells; conditions: for effect of receptor antagonist on substance P-enhanced platelet colony formation: antagonist in the presence of substance P
Description: (§1) This study examined the formation of three different progenitor cell populations, erythrocytes, platelets and granulocytes/macrophages.
(§2) Bone marrow aspirates were obtained from three healthy donors between 18 and 35 years of age following appropriate guidelines and protocols. Bone marrow mononuclear cells were isolated using a Ficoll-Hypaque density gradient, separating red blood cells from the others. Cells from each donor were processed independently and used for setting up individual experiments to assess the effects, if any, of donor variability.
(§3) Cells (1×10^5) were plated in duplicate onto 35 mm tissue culture plates for each condition tested and set up as described in Rameshwar et al. 1993, Blood. 81:2, 391-398. Erythroid and granulocyte/macrophage cultures were plated using methylcellulose and megakaryocyte cultures (platelet precursors) used a collagen-based support (StemCell Technologies, Vancouver, Canada, catalogue #04973). […] CP 99,994 (Pfizer) was used as a neurokinin-1 receptor antagonist and SR 48968 (Sanofi) was used as a neurokinin-2 receptor antagonist.
Cultures were set up with limited cytokines and growth factors which would promote differentiation of one progenitor per plate.
Each compound was dissolved in endotoxin-free water to a final concentration of 0.1 mM. After reconstitution, the solutions were aliquoted into siliconized microcentrifuge tubes and exposed to nitrogen gas, eliminating oxygen in the head space of the enclosure. All aliquots were stored at −20° C. until use and used within one month of reconstitution. See, Rameshwar, et al. 1997, J. Immunol.
Cultures were incubated at 37° C. with 5% CO2 for approximately 14 days, after which colonies were manually enumerated using a microscope. To count megakaryocyte colonies, the cells were fixed followed by a staining procedure using the following antibodies: primary—mouse anti-human GP11b/111a, isotype control—mouse anti-trinitrophenyl, secondary—biotin-conjugated goat anti-mouse IgG, detection—avidin-alkaline phosphatase conjugate. […]

[2] = system: human bone marrow mononuclear cell (MNC) fraction; assay: CFC assay, multi-donor study, all seven cell populations (overall toxicity); conditions: three donors, highest doses (up to 1 nM)
Protocol: Compound was dissolved in 1 ml of Iscove's Modified Dulbecco's Medium (IMDM) and a serial dose response was prepared in single log doses so that the final dose in culture ranged from 1 nanoMolar (nM) to 1×10^−16 M. All working dilutions were performed in IMDM. Cell cultures from each donor were started at different times and a fresh solution of Homspera® was prepared for each individual experiment.
Starting with human bone marrow aspirate, the mononuclear cell (MNC) fraction from each aspirate was separated from whole bone marrow using Ficoll-Paque density gradient centrifugation.
The colony-forming cell (CFC) assay was performed using optimal growth factor/cytokine concentrations. The reagents and conditions were similar to those used in Example 3, except that no ATP measurements were performed. The MNC fraction from each bone marrow donor was dissolved in IMDM and cultured at a concentration of 5,000 cells/well in a Culture Master Mix (HemoGenix, Inc., Colorado Springs, Colo.). […]
The mean, standard deviation and percent coefficient of variation was calculated for all groups, transposed and plotted as a function of donor. The percent from control values were calculated and also plotted as a function of donor. […]

[3] = system: Blast Forming Unit—Erythroid (BFU-E); assay: Colony forming unit (CFU) assay, human bone marrow cells; conditions: about 14 days; three donors; FIG. 1
Description: as §1, §2, §3
(§4) The cytokines and growth factors added to Blast Forming Unit—Erythroid (BFU-E) cultures, Colony Forming Unit—Erythroid (CFU-E) cultures, and Colony Forming Unit—Granulocyte/Macrophage (CFU-GM) cultures were added as defined by proliferative units. […]

[4] = system: Colony Forming Unit—Erythroid (CFU-E); assay: as above; conditions: about 14 days; FIG. 2
Description: as §1, §2, §3, §4

COc1ccccc1CN[C@H]1CCCN[C@H]1c1ccccc1 [CP-99,994]
effect of receptor antagonist on substance P-enhanced platelet colony formation [1]: blocks the stimulatory activity of substance P

CC(C)C[C@H](NC(=O)CN(C)C(=O)[C@H](Cc1ccccc1)NC(=O)[C@H](Cc1ccccc1)NC(=O)[C@H](CCC(N)=O)NC(=O)[C@H](CCC(N)=O)NC(=O)[C@@H]1CCCN1C(=O)[C@H](CCCCN)NC(=O)[C@@H]1CCCN1C(=O)[C@@H](N)CCCNC(=N)N)C(=O)N[C@@H](CCS(C)(=O)=O)C(N)=O [Homspera®, [Sar^9, Met(O)2^11]-substance P]
toxicity [2]: no apparent toxicity

CC(=O)NC1(c2ccccc2)CCN(CC[C@H](CN(C)C(=O)c2ccccc2)c2ccc(Cl)c(Cl)c2)CC1 [SR48968]
effect of receptor antagonist on substance P-enhanced platelet colony formation [1]: no effect on substance P activity

Arg Pro Lys Pro Gln Gln Phe Phe Gly Leu Met [substance P]
BFU-E colony formation, increase from control values [3]: ~60%
CFU-E colony formation, enhancement from control values [4]: about 70%
concentration at which effective on platelet precursors [1]: 10^−8 M
